Consider 65 compounds from US9682966B2, “Kappa opioid ligands” (The Scripps Research Institute, priority 2012, dated 2017).

kappa opioid receptor (OPRK1), sequence (P41145 whole entry): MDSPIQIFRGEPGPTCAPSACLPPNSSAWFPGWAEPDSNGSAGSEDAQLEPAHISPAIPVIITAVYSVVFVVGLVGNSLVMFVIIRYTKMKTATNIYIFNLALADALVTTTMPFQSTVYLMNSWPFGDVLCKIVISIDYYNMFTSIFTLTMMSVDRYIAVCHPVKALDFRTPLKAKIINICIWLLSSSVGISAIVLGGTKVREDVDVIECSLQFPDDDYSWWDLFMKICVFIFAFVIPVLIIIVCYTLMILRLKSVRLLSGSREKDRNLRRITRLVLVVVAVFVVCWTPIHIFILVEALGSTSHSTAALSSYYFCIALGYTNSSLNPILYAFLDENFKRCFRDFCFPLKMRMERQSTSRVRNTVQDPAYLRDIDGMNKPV

This experiment has as its target kappa opioid receptor (OPRK1) (Homo sapiens (Human), UniProt P41145). As to the kind of experiment: OPRK1 antagonist assay (b-arrestin-2-TEV / b-lactamase reporter, EC80 U-50488 challenge). As to conditions: OPRK1 antagonist assay vs EC80 U-50488. Type of experiment: cell-based.
By IC50 is commonly meant the point on the concentration scale where inhibition reaches its midpoint. Low readings indicate higher potency, high ones lower potency. Consider `COC(=O)c1cc(Br)cnc1N1CCC(N)CC1` [C1], for which the IC50 is above 10 µM.
The same measure for `COC(=O)c1cc(Br)cnc1N1CCC(NC(=O)OC(C)(C)C)CC1` [C2]: above 10 µM; for `COC(=O)c1cc(Br)cnc1N1CCC(N2CCOCC2)CC1` [C5]: above 10 µM.
The value for `COC(=O)c1cc(Br)cnc1N1CCC(NC2CCC(O)CC2)CC1` (centres unmarked) [C6] was above 10 µM; that for `COC(=O)c1cc(Br)cnc1N1CCC(Nc2ccccc2)CC1` [C7] was above 10 µM.
The same measure for `COC(=O)c1cc(Br)cnc1N1CCC(N2CCN(C)CC2)CC1` [C8]: above 10 µM; for `COC(=O)c1cc(Br)cnc1N1CCC(N[C@@H]2CCCCC[C@@H]2O)CC1` [C9]: above 10 µM.
Regarding `O=C(c1ccccc1)N1CCC(N[C@@H]2CCCC[C@H]2O)CC1` [C10], the concentration for half-maximal inhibition (IC50) was above 10 µM.
The same measure for `Cc1cc(Cl)nc(N2CCC(N[C@@H]3CCCC[C@H]3O)CC2)c1C#N` [C11]: above 10 µM; for `O[C@@H]1CCCC[C@H]1NC1CCN(c2ccc(Cl)cn2)CC1` [C12]: above 10 µM; for `COC(=O)c1cc(-c2ccccc2)cnc1N1CCC(NC2CCCCC2)CC1` [C13]: above 10 µM.
The same measure for `COC(=O)c1cc(Br)cnc1N1CCCC(NC2CCCCC2)C1` (centres unmarked) [C14]: above 10 µM; for `COC(=O)c1cc(C2CC2)cnc1N1CCC(NC2CCCCC2)CC1` [C15]: above 10 µM; for `COC(=O)c1cc(Br)cnc1N1CCC(CN)CC1` [C16]: above 10 µM.
The same measure for `COC(=O)c1cc(C2=CCCCC2)cnc1N1CCC(NC2CCCCC2)CC1` [C17]: above 10 µM.
Compound `CCN(CC)C(=O)c1cc(Br)cnc1N1CCC(NC2CCCCC2)CC1` [C18] came in with an IC50 above 10 µM.
The value for `CN(C)C(=O)c1cc(Br)cnc1N1CCC(NC2CCCCC2)CC1` [C19] was above 10 µM; that for `COC(=O)c1cc(Br)cnc1N1CCC(NC2CCCCC2)(C(=O)OC)CC1` [C21] was above 10 µM.
The same measure for `COC(=O)c1cc(Br)cnc1N1CCC(NCc2ccccc2O)CC1` [C22]: above 10 µM.
The same measure for `COC(=O)c1cc(Br)cnc1N1CCC(NCc2ccccc2OC)CC1` [C23]: above 10 µM.
In turn, `COC(=O)c1ccc(C(F)(F)F)nc1N1CCC(NC2CCCCC2)CC1` [C24] yielded an IC50 above 10 µM.
The value for `FC(F)(F)c1cc(Br)cnc1N1CCC(NC2CCCCC2)CC1` [C25] was above 10 µM; that for `CCOC(=O)c1c(C(F)(F)F)ccnc1N1CCC(NC2CCCCC2)CC1` [C26] was above 10 µM.
The value for `CCOC(=O)c1cc(C(N)=O)c(C)nc1N1CCC(NC2CCCCC2)CC1` [C28] was above 10 µM.
The value for `O=C(O)c1cc(Br)cnc1N1CCC(NC2CCCCC2)CC1` [C29] was above 10 µM.
`COC(=O)c1cc(NS(C)(=O)=O)cnc1N1CCC(NC2CCCCC2)CC1` [C30] registered a 50% inhibitory concentration (IC50) above 10 µM.
The same measure for `COCCOC(=O)c1cc(Br)cnc1N1CCC(NC2CCCCC2)CC1` [C31]: above 10 µM.
The value for `CCCCOC(=O)c1cc(Br)cnc1N1CCC(NC2CCCCC2)CC1` [C32] was above 10 µM; that for `COC(=O)c1cc(NC(=O)CCN(C)C)cnc1N1CCC(NC2CCCCC2)CC1` [C33] was above 10 µM.
The value for `COC(=O)c1cc(NC(=O)c2cc(C)on2)cnc1N1CCC(NC2CCCCC2)CC1` [C34] was above 10 µM.
For the compound `COC(=O)c1cc(NC(=O)C(C)(C)C)cnc1N1CCC(NC2CCCCC2)CC1` [C37], the IC50 is above 10 µM.
`COC(=O)c1cnc(N2CCC(NC3CCCCC3)CC2)c(N)c1` [C38]: the IC50 is above 10 µM.
The value for `COC(=O)c1cnc(N2CCC(NC3CCCCC3)CC2)c(NC(C)=O)c1` [C39] was above 10 µM; that for `COC(=O)c1cnc(N2CCC(NC3CCCCC3)CC2)c(NS(C)(=O)=O)c1` [C40] was above 10 µM; that for `COC(=O)c1cc(NC(=O)CN)cnc1N1CCC(NC2CCCCC2)CC1` [C41] was above 10 µM.
`COC(=O)c1cnc(N2CCC(NC3CCCCC3)CC2)c(Br)c1` [C43] had an IC50 of 15 µM.
The same measure for `COC(=O)c1cnc(N2CCC(N(C(=O)OC(C)(C)C)C3CCCCC3)CC2)c(Br)c1` [C44]: above 10 µM; for `O=Cc1cc(Br)cnc1N1CCC(NC2CCCCC2)CC1` [C45]: above 10 µM; for `O=Cc1cc(Br)cnc1N1CCC(NC2CCCCC2)C(CO)C1` (centres unmarked) [C46]: above 10 µM.
`O=Cc1cc(Br)cnc1N1CCC(NC2CCCCC2)C(O)C1` (centres unmarked) [C47] displayed a concentration for half-maximal inhibition (IC50) above 10 µM.
The value for `COC(=O)c1cc(Br)cnc1N1CCC(N(C(C)=O)C2CCCCC2)C(OC(C)=O)C1` (centres unmarked) [C48] was above 10 µM.
For `COC(=O)c1cc(Br)cnc1N1CCC(OC2CCCCC2O)CC1` (centres unmarked) [C50], the IC50 is above 10 µM.
The same measure for `COC(=O)c1cc(C#N)c(N2CCC(NC3CCCCC3)CC2)nc1C` [C55]: above 20 µM; for `COC(=O)c1cc(C#N)c(N2CCC(NC3CCCCC3)C(CO)C2)nc1C` (centres unmarked) [C56]: above 20 µM.
Turning to `COC(=O)c1cc(C#N)c(N2CCC(NC3CCCCC3)C(O)C2)nc1C` (centres unmarked) [C57], the 50% inhibitory concentration (IC50) was above 20 µM.
The value for `CC(=O)c1cc(C2CC2)cnc1N1CC[C@@H](NC2CCCCC2)[C@H](O)C1` [C62] was above 10 µM; that for `CC(=O)c1cc(C2CC2)cnc1N1CCC(NC2CCCCC2)C(CO)C1` (centres unmarked) [C63] was above 10 µM; that for `CC(=O)c1cc(-c2ccccc2)cnc1N1CCC(NC2CCCCC2)C(CO)C1` (centres unmarked) [C64] was above 10 µM.
Turning to `CC(=O)c1cc(-c2ccccc2)cnc1N1CC[C@@H](NC2CCCCC2)[C@H](O)C1` [C65], the half-maximal inhibitory concentration (IC50) was above 10 µM.
The compound `Cc1ccc2nc(N3CCC(NC(=O)OC(C)(C)C)CC3)c(-c3nc(C)no3)cc2c1` [C71] showed a half-inhibitory concentration (IC50) above 10 µM.
The same measure for `Cc1ccc2nc(N3CCC(NC(C)CC(C)C)CC3)c(-c3nc(C)no3)cc2c1` (centres unmarked) [C72]: above 10 µM; for `Cc1ccc2nc(N3CCC(NC(C)C)CC3)c(-c3nc(C)no3)cc2c1` [C73]: above 10 µM.
As to `Cc1ccc2nc(N3CCC(C)(NC4CCOCC4)CC3)c(-c3nc(C)no3)cc2c1` [C74], the IC50 is above 10 µM.
The value for `Cc1ccc2nc(N3CCC(C)(NC4CCCCC4)CC3)c(-c3nc(C)no3)cc2c1` [C75] was above 10 µM; that for `Cc1ccc2nc(N3CCN(CC4CCCCC4)C(CO)C3)c(-c3nc(C)no3)cc2c1` (centres unmarked) [C76] was above 10 µM; that for `Cc1ccc2nc(N3CCC(NC(=O)C4CCCCC4)CC3)c(-c3nc(C)no3)cc2c1` [C77] was above 10 µM.
The value for `CCC(CC)C(=O)NC1CCN(c2nc3ccc(C)cc3cc2-c2nc(C)no2)CC1` [C78] was above 10 µM.
The same measure for `COC1CN(c2nc3ccccc3cc2-c2ncc(C)o2)CCC1NC1CCCCC1` (centres unmarked) [C79]: above 10 µM; for `Cc1ccc2nc(N3CCCC(NC4CCCCC4)CC3)c(-c3nc(C)no3)cc2c1` (centres unmarked) [C80]: above 10 µM; for `Cc1cnc(-c2cc3ccccc3nc2N2CCC(NC3CCOCC3)CC2)o1` [C81]: above 10 µM.
As to `Cc1ccc2nc(N3CCC(N)CC3)c(-c3nc(C)no3)cc2c1` [C82], the IC50 was above 10 µM.
The value for `Cc1ccc2nc(N3CCC(CNC4CCCCC4)CC3)c(-c3nc(C)no3)cc2c1` [C84] was above 10 µM; that for `Cc1ccc2nc(NCCCNC3CCOCC3)c(-c3nc(C)no3)cc2c1` [C85] was above 10 µM; that for `Cc1ccc2nc(NCCCNC3CCCCC3)c(-c3nc(C)no3)cc2c1` [C86] was above 10 µM.
Take `CNC(=O)c1cc2cc(C)ccc2nc1N1CCC(NC2CCCCC2)C(CO)C1` (centres unmarked) [C89]: the concentration for half-maximal inhibition (IC50) was above 10 µM.
